Assay results published in US9850283B2, “Macrocyclic inhibitors of the PD-1/PD-L1 and CD80(B7-1)/PD-L1 protein/protein interactions” (BRISTOL-MYERS SQUIBB COMPANY, priority 2013, dated 2017).
Where two headings read alike, the source gives them in different places. Starred links: 1 amine or outer side, 2 acyl side, 3 side chain; linkers in the order of their positions; H or OH if unused. Positions of bridges follow the written chain, without caps; N, C: chain ends. Non-standard residues stand in square brackets, D forms with d. Residues, ends and D or L forms follow the SMILES beside them. ξ: configuration not given here. X6 = O=C([C@H](Cc1c(-c2ccc(F)cc2)[nH]c2ccccc12)N[*:1])[*:2]; Phe(3,4-(OMe)2) = COc1ccc(C[C@H](N)C(=O)O)cc1OC; Phe(4-CH2NH2) = NCc1ccc(C[C@H](N)C(=O)O)cc1; Phe(4-F) = N[C@@H](Cc1ccc(F)cc1)C(=O)O; Bta = N[C@@H](Cc1csc2ccccc12)C(=O)O; cisHyp = O=C(O)[C@@H]1C[C@H](O)CN1; Hyp = O=C(O)[C@@H]1C[C@@H](O)CN1; NMeF = CN[C@@H](Cc1ccccc1)C(=O)O; NMeNle = CCCC[C@H](NC)C(=O)O; NMeM = CN[C@@H](CCSC)C(=O)O; ξY = NC(Cc1ccc(O)cc1)C(=O)O; ξR = N=C(N)NCCCC(N)C(=O)O; NMeA = CN[C@@H](C)C(=O)O; Dab = NCC[C@H](N)C(=O)O; Dap = NC[C@H](N)C(=O)O; ξhCys = NC(CCS)C(=O)O; ξP = O=C(O)C1CCCN1; ξC = NC(CS)C(=O)O; Sar = CNCC(=O)O

How the values were obtained:
Human PD-L1/PD-1 = biological target: T1, Human PD-L1/PD-1 (Homo sapiens, UniProt Q9NZQ7); experiment: HTRF PD-1-Ig/PD-L1-His binding assay (human PD-L1)
T1 construct: made in house; host or cells: HEK293T
T1 sequence (Q9NZQ7 with tags, fused parts or gaps): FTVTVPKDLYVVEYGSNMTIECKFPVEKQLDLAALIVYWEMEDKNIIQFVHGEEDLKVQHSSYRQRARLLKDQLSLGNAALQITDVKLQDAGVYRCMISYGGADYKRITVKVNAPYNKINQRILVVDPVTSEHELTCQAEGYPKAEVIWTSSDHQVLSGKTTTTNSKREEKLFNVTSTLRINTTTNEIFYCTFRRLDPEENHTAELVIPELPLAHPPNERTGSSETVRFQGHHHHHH
Method in brief: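 Ig- and His-fused extracellular PD-1/PD-L1 binding in BSA/Tween-20 dPBS. HTRF with Eu anti-Ig (1 nM final) and APC anti-His (20 nM final).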

[1] = biological target: T2, LK35.2-hPD-L1 cells / PE-labeled PD-1-Ig (Homo sapiens, UniProt Q9NZQ7); experiment: LK35.2-hPD-L1 cell binding high-content screening assay; assay type: cell-based
T2 construct: expressed in transfected cells; host or cells: LK35.2 mouse B cell line
T2 sequence (Q9NZQ7 19-290): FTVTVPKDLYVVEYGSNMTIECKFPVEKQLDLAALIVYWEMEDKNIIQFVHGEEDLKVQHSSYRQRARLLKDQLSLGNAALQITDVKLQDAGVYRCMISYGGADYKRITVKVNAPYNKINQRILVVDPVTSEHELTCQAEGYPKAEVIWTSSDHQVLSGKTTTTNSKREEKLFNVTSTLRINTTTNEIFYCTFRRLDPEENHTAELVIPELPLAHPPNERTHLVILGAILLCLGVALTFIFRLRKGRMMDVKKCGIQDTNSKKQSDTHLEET
Method in brief: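 Using overnight-cultured LK35.2-hPD-L1 mouse B cells, compound was co-incubated with phycoerythrin-tagged human PD-1-Ig (final 1 nM) at 37 °C for one hour. Unbound label was removed by triple dPBS washing prior to high-content image acquisition and analysis.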

[2] = cluster symbol, read-out: HTRF IC50 cluster
[3] = cluster symbol, cell line of CBA not given (LK35.2-hPD-L1 or 293T-hPD-L1), read-out: CBA IC50 cluster
[4] = cell binding assay, cell line not given, cluster symbol, read-out: CBA IC50 cluster

Row | SMILES | IC50 (Human PD-L1/PD-1; [2]) | IC50 [1, 3] | IC50 [1, 4] | IC50 (Human PD-L1/PD-1; value given instead of cluster, read-out: HTRF IC50 value) | IC50 ([1]; cell binding assay, cell line not given, value given instead of cluster, read-out: CBA IC50 value)
1 | CCCC[C@H]1C(=O)N(C)[C@@H](CCCC)C(=O)N[C@@H](CCCNC(=N)N)C(=O)N[C@H](C(=O)NCC(N)=O)CSCC(=O)NC(Cc2ccc(O)cc2)C(=O)N(C)[C@@H](C)C(=O)N[C@@H](CC(N)=O)C(=O)N2CCCC2C(=O)N[C@@H](CN)C(=O)N[C@@H](CCC(=O)O)C(=O)N2CCC[C@H]2C(=O)N[C@@H](Cc2c[nH]c3ccccc23)C(=O)N[C@@H](CO)C(=O)N[C@@H](Cc2c[nH]c3ccccc23)C(=O)N1C (stereo partly shown) [Example 1091] ({CH2CO}-[ξY][NMeA]N[ξP][Dap]EPWSW[NMeNle][NMeNle]RCG-NH2; thioether N-14) | 0.385 to 6.74 nM | 0.158 to 4.71 nM | – | – | –
2 | CCCC[C@H]1C(=O)N(C)[C@@H](CCCC)C(=O)NC(CCCNC(=N)N)C(=O)N[C@H](C(=O)NCC(N)=O)CSCC(=O)N[C@@H](Cc2ccc(O)cc2)C(=O)N(C)[C@@H](C)C(=O)N[C@@H](CC(N)=O)C(=O)N2CCC[C@H]2C(=O)N[C@@H](CN)C(=O)N[C@@H](CC(C)C)C(=O)N2C[C@H](O)C[C@H]2C(=O)N[C@@H](Cc2c[nH]c3ccccc23)C(=O)N[C@@H](CO)C(=O)N[C@@H](Cc2c(-c3ccc(F)cc3)[nH]c3ccccc23)C(=O)N1C (stereo partly shown) [Example 7002] ({CH2CO}-Y[NMeA]NP[Dap]L[Hyp]WS[X6][NMeNle][NMeNle][ξR]CG-NH2; thioether N-14) | 0.385 to 6.74 nM | – | 0.158 to 4.71 nM | – | –
3 | CCCC[C@H]1C(=O)N(C)[C@@H](CCSC)C(=O)N[C@@H](CCCNC(=N)N)C(=O)NC(C(=O)NCC(N)=O)CSCC(=O)N[C@@H](Cc2ccc(O)cc2)C(=O)N(C)[C@@H](C)C(=O)N[C@@H](CC(N)=O)C(=O)N2CCC[C@H]2C(=O)N[C@@H](Cc2cnc[nH]2)C(=O)N[C@@H](CO)C(=O)N2CCC[C@H]2C(=O)N[C@@H](Cc2c[nH]c3ccccc23)C(=O)N[C@@H](CO)C(=O)N[C@@H](Cc2c[nH]c3ccccc23)C(=O)N1C (stereo partly shown) [Example 9105] ({CH2CO}-Y[NMeA]NPHSPWSW[NMeNle][NMeM]R[ξC]G-NH2; thioether N-14) | 0.385 to 6.74 nM | – | 4.78 to 72.9 nM | – | –
4 | CCCC[C@H]1C(=O)N(C)[C@@H](CCCC)C(=O)N[C@@H](CCCNC(=N)N)C(=O)N[C@H](C(=O)NCC(N)=O)CSCC(=O)N[C@@H](Cc2ccc(O)cc2)C(=O)N2CCC[C@H]2C(=O)N[C@@H](CC(N)=O)C(=O)N2CCC[C@H]2C(=O)N[C@@H](Cc2cnc[nH]2)C(=O)N[C@@H](CC(C)C)C(=O)N2C[C@@H](O)C[C@H]2C(=O)N[C@@H](Cc2c[nH]c3ccccc23)C(=O)N[C@@H](CO)C(=O)N[C@@H](Cc2c[nH]c3ccccc23)C(=O)N1C [Example 1148] ({CH2CO}-YPNPHL[cisHyp]WSW[NMeNle][NMeNle]RCG-NH2; thioether N-14) | 6.76 to 30.3 nM | 4.78 to 72.9 nM | – | – | –
5 | CCCC[C@H]1C(=O)N(C)[C@@H](CCCC)C(=O)N[C@@H](CCCNC(=N)N)C(=O)N[C@H](C(=O)NCC(N)=O)CSCC(=O)N[C@@H](Cc2ccccc2)C(=O)N(C)[C@@H](C)C(=O)N[C@@H](CC(N)=O)C(=O)N2CCC[C@H]2C(=O)N[C@@H](Cc2cnc[nH]2)C(=O)N[C@@H](Cc2c[nH]c3ccccc23)C(=O)N(C)CC(=O)N[C@@H](Cc2c[nH]c3ccccc23)C(=O)N[C@@H](CO)C(=O)N[C@@H](Cc2c[nH]c3ccccc23)C(=O)N1C [Example 6009] ({CH2CO}-F[NMeA]NPHW[Sar]WSW[NMeNle][NMeNle]RCG-NH2; thioether N-14) | – | – | – | 69.7 nM | 158 nM
6 | CCCC[C@H]1C(=O)N(C)[C@@H](CCCC)C(=O)N[C@@H](CO)C(=O)N[C@H](C(=O)NCC(N)=O)CSCC(=O)N[C@@H](Cc2ccc(O)cc2)C(=O)N(C)[C@@H](C)C(=O)N[C@@H](CCN)C(=O)N2CCC[C@H]2C(=O)N[C@@H](Cc2c[nH]cn2)C(=O)N[C@@H](CCC(=O)O)C(=O)N2C[C@H](O)C[C@H]2C(=O)N[C@@H](Cc2c[nH]c3ccccc23)C(=O)N[C@@H](CO)C(=O)N[C@@H](Cc2c[nH]c3ccccc23)C(=O)N1C [Example 5108] ({CH2CO}-Y[NMeA][Dab]PHE[Hyp]WSW[NMeNle][NMeNle]SCG-NH2; thioether N-14) | 6.76 to 30.3 nM | – | 4.78 to 72.9 nM | – | –
7 | CCCC[C@H]1C(=O)N(C)CC(=O)N[C@@H](CC(=O)O)C(=O)N[C@@H](C(C)C)C(=O)N(C)[C@@H](Cc2ccccc2)C(=O)N[C@@H](Cc2ccc(O)cc2)C(=O)N(C)CC(=O)N[C@@H](Cc2csc3ccccc23)C(=O)N[C@@H](Cc2ccc(O)cc2)C(=O)N[C@@H](CCC(=O)O)C(=O)N[C@H](C(=O)NCC(N)=O)CSCC(=O)N[C@@H](Cc2ccccc2)C(=O)N(C)[C@@H](Cc2ccccc2)C(=O)N1C [Example 3074] ({CH2CO}-F[NMeF][NMeNle][Sar]DV[NMeF]Y[Sar][Bta]YECG-NH2; thioether N-13) | 6.76 to 30.3 nM | 4.78 to 72.9 nM | – | – | –
8 | CCCC[C@H]1C(=O)N(C)[C@@H](CCCC)C(=O)N[C@@H](CCCNC(=N)N)C(=O)N[C@H](C(=O)NCC(N)=O)CSCC(=O)N[C@@H](Cc2ccc(OC)c(OC)c2)C(=O)N(C)[C@@H](C)C(=O)N[C@@H](CC(N)=O)C(=O)N2CCC[C@H]2C(=O)N[C@@H](CN)C(=O)N[C@@H](CC(C)C)C(=O)N2C[C@H](O)C[C@H]2C(=O)N[C@@H](Cc2c[nH]c3ccccc23)C(=O)N[C@@H](CO)C(=O)N[C@@H](Cc2c[nH]c3ccccc23)C(=O)N1C [Example 7040] ({CH2CO}-[Phe(3,4-(OMe)2)][NMeA]NP[Dap]L[Hyp]WSW[NMeNle][NMeNle]RCG-NH2; thioether N-14) | 0.385 to 6.74 nM | – | 4.78 to 72.9 nM | – | –
9 | CCCC[C@H]1C(=O)N(C)[C@@H](CCCC)C(=O)N[C@@H](C)C(=O)N[C@H](C(=O)NCC(N)=O)CSCC(=O)N[C@@H](Cc2ccc(O)cc2)C(=O)N(C)[C@@H](C)C(=O)N[C@@H](CC(N)=O)C(=O)N2CCC[C@H]2C(=O)N[C@@H](Cc2cnc[nH]2)C(=O)N[C@@H](CC(C)C)C(=O)N2C[C@H](O)C[C@H]2C(=O)N[C@@H](Cc2c[nH]c3ccccc23)C(=O)N[C@@H](CCN)C(=O)N[C@@H](Cc2c[nH]c3ccccc23)C(=O)N1C [Example 5035] | 0.385 to 6.74 nM | – | 0.158 to 4.71 nM | – | –
10 | CCCC[C@H]1C(=O)N(C)[C@@H](CCCC)C(=O)N[C@@H](CCCNC(=N)N)C(=O)N[C@H](C(=O)NCC(N)=O)CSCC(=O)N[C@@H](Cc2ccccc2)C(=O)N(C)[C@@H](C)C(=O)N[C@@H](CC(N)=O)C(=O)N2CCC[C@H]2C(=O)N[C@@H](Cc2cnc[nH]2)C(=O)N[C@@H](C(C)C)C(=O)N(C)CC(=O)N[C@@H](Cc2c[nH]c3ccccc23)C(=O)N[C@@H](CO)C(=O)N[C@@H](Cc2c[nH]c3ccccc23)C(=O)N1C [Example 6007] ({CH2CO}-F[NMeA]NPHV[Sar]WSW[NMeNle][NMeNle]RCG-NH2; thioether N-14) | 6.76 to 30.3 nM | – | 4.78 to 72.9 nM | – | –
11 | CCCC[C@H]1C(=O)N(C)[C@@H](CCCC)C(=O)N[C@@H](CCCNC(=N)N)C(=O)NC(C(=O)NCC(N)=O)CCSCC(=O)N[C@@H](Cc2ccc(O)cc2)C(=O)N(C)[C@@H](C)C(=O)N[C@@H](CC(N)=O)C(=O)N2CCC[C@H]2C(=O)N[C@@H](Cc2cnc[nH]2)C(=O)N[C@@H](CC(C)C)C(=O)N2CCC[C@H]2C(=O)N[C@@H](Cc2c[nH]c3ccccc23)C(=O)N[C@@H](CO)C(=O)N[C@@H](Cc2csc3ccccc23)C(=O)N1C (stereo partly shown) [Example 9018] ({CH2CO}-Y[NMeA]NPHLPWS[Bta][NMeNle][NMeNle]R[ξhCys]G-NH2; thioether N-14) | 6.76 to 30.3 nM | – | > 74.3 nM | – | –
12 | CCCC[C@H]1C(=O)N(C)CC(=O)N[C@@H](CC(=O)O)C(=O)N[C@@H](C(C)C)C(=O)N(C)[C@@H](Cc2ccccc2)C(=O)N[C@@H](Cc2ccc(CN)cc2)C(=O)N(C)CC(=O)N[C@@H](Cc2csc3ccccc23)C(=O)N[C@@H](Cc2ccc(O)cc2)C(=O)N[C@@H](CC(C)C)C(=O)N[C@H](C(=O)NCC(N)=O)CSCC(=O)N[C@@H](Cc2ccc(F)cc2)C(=O)N(C)[C@@H](Cc2ccccc2)C(=O)N1C [Example 3120] ({CH2CO}-[Phe(4-F)][NMeF][NMeNle][Sar]DV[NMeF][Phe(4-CH2NH2)][Sar][Bta]YLCG-NH2; thioether N-13) | 6.76 to 30.3 nM | 0.158 to 4.71 nM | – | – | –
13 | CCCC[C@H]1C(=O)N(C)[C@@H](CCCC)C(=O)N[C@@H](Cc2ccccn2)C(=O)N[C@H](C(=O)NCC(N)=O)CSCC(=O)N[C@@H](Cc2ccc(O)cc2)C(=O)N(C)[C@@H](C)C(=O)N[C@@H](CC(N)=O)C(=O)N2CCC[C@H]2C(=O)N[C@@H](Cc2cnc[nH]2)C(=O)N[C@@H](CC(C)C)C(=O)N2C[C@H](O)C[C@H]2C(=O)N[C@@H](Cc2c[nH]c3ccccc23)C(=O)N[C@@H](CO)C(=O)N[C@@H](Cc2c[nH]c3ccccc23)C(=O)N1C [Example 7032] | 0.385 to 6.74 nM | – | 4.78 to 72.9 nM | – | –
14 | CCCC[C@H]1C(=O)N(C)[C@@H](CCCC)C(=O)N[C@@H](CCCNC(=N)N)C(=O)N[C@H](C(=O)NCC(N)=O)CSCC(=O)N[C@@H](Cc2ccccc2)C(=O)N(C)[C@@H](C)C(=O)N[C@@H](CC(N)=O)C(=O)N2CCC[C@H]2C(=O)N[C@@H](Cc2cnc[nH]2)C(=O)N[C@@H](CC(C)C)C(=O)N(C)CC(=O)N[C@@H](Cc2ccc(OC)c(OC)c2)C(=O)N[C@@H](CO)C(=O)N[C@@H](Cc2c[nH]c3ccccc23)C(=O)N1C [Example 1080] ({CH2CO}-F[NMeA]NPHL[Sar][Phe(3,4-(OMe)2)]SW[NMeNle][NMeNle]RCG-NH2; thioether N-14) | > 30.5 nM | > 74.3 nM | – | – | –
